From patent publication EP0237239A2, “New compounds” (THE WELLCOME FOUNDATION LIMITED, priority 1986, dated 1987)
Counter-ions that a name gives are not always drawn.

Biological target: T1, angiotension converting enzyme (Cavia porcellus, UniProt H0UWL7)
T1 construct: from tissue; host or cells: guinea pig ileum
T1 sequence (H0UWL7 33-1302): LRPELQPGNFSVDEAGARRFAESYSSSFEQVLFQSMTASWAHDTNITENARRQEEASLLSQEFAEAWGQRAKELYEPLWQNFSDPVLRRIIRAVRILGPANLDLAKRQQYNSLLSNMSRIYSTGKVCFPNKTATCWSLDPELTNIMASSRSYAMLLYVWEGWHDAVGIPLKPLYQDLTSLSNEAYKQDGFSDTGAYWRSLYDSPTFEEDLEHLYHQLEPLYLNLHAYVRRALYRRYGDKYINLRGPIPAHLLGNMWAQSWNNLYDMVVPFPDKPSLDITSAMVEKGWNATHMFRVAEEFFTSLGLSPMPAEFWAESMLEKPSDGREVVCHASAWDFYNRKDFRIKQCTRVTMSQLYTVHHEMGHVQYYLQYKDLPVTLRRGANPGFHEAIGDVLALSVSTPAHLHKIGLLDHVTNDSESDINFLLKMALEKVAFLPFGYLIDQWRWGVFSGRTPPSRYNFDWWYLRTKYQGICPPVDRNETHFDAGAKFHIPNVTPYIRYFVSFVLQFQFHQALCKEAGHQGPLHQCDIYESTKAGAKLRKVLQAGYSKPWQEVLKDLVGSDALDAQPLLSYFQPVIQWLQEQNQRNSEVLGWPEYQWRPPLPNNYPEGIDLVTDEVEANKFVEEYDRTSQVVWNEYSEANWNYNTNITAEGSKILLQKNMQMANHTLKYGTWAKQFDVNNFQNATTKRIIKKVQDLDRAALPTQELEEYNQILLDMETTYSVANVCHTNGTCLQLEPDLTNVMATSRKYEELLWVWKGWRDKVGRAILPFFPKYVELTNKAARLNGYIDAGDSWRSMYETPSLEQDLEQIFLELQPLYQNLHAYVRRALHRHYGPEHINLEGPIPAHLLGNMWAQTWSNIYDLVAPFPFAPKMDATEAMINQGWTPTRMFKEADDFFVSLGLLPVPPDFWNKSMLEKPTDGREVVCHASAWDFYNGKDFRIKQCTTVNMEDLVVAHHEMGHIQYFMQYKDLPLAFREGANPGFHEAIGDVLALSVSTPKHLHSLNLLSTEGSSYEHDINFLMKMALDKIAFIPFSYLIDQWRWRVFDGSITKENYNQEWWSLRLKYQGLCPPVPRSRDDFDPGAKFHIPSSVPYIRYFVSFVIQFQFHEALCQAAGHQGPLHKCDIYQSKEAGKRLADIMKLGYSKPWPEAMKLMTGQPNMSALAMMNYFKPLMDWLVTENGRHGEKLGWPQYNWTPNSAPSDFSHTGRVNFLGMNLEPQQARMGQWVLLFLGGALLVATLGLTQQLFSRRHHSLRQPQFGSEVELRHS
Assay: angiotensin converting enzyme inhibition in guinea pig ileum (inhibition of contractile responses to Angiotensin I)
Type: cell-based
Settings: dose-dependent inhibition of contractile responses to Angiotensin I, in vitro, read-out: EC50 (the source's name)
Description: (b) ACE inhibition in vitro
In any assay for angiotension converting enzyme inhibition in guinea pig ileum, dose-dependent inhibition of contractile responses to Angiotensin I gave the following results: […]

| Compound | IC50 |
| --- | --- |
| CC(C)NCC(O)COc1cccc2ccc(CNCCCC[C@H](NC(C)C(=O)N3CCC[C@H]3C(=O)O)C(=O)O)cc12 (stereo partly drawn) [Example 5, N-(1(S)-Carboxy-5-[8-(2(S,R)-hydroxy-3-isopropylaminopropoxy)naphth-2-ylmethylamino]pentyl)-(S,R)-alanyl-(S)-proline tristrifluoroacetate] | 9.6 nM |
| CC(C)NCC(O)COc1cccc2c(OCC(=O)NCCCC[C@H](NC(C)C(=O)N3CCC[C@H]3C(=O)O)C(=O)O)cccc12 (stereo partly drawn) [Example 2, N-(l(S)-Carboxy-5-(2-[5-(2(S,R)-hydroxy-3-isopropylaminopropoxy)-naphth-1-yloxy]acetamido)pentyl)-(S,R)-alanyl-(S)-proline dihydrochloride acetate hemihydrate] | 13.5 nM |
